# Data from patent publication US11331299B2, “Medicinal use of serrulatane diterpenes” (The University of Sydney, priority 2016, dated 2022).
# Where two headings read alike, the source gives them in different places.
# Test system: 280 human cancer cell lines
# Assay: OncoPanel cell proliferation assay (10-day)
# Type: cell-based
# Settings: Homo sapiens; for IC50: read-out: Cell Count IC50; for EC50: read-out: Cell Count EC50; for GI50: read-out: Cell Count GI50
# [1] = SJRH30, SJRH30, Soft Tissue - Sarcoma
# [2] = SJSA-1, SJSA1, Soft Tissue - Osteosarcoma
# [3] = SK-LMS-1, SK-LMS-1, Soft Tissue - Sarcoma
# [4] = SK-MEL3, SK-MEL-3, Skin (Melanoma)
# [5] = SK-MEL-1, SK-MEL-1, Skin (Melanoma)
# [6] = SK-MEL-28, SK-MEL-28, Skin (Melanoma)
# [7] = SK-OV-3, SKOV3, Female GU - Ovary
# [8] = SK-UT-1, SK-UT-1, Soft Tissue - Sarcoma
# [9] = SW579, SW579, Endocrine - Thyroid
# [10] = SW684, SW684, Soft Tissue - Sarcoma
compound,measurement,setting,value
"CC(C)=CCC[C@@H]1C(O)Oc2c(C)cc(O)c3c2[C@H]1CC[C@H]3C (some centres unmarked) [Compound 2, 5,18-epoxyserrulat-14-en-8,18-diol]",IC50,"SCaBER, Bladder",11.5 µM
same,EC50,"SH-4, Skin (Melanoma)",9.6 µM
same,GI50,"SH-4, Skin (Melanoma)",11.8 µM
same,IC50,"SH-4, Skin (Melanoma)",11.9 µM
same,EC50,"SHP77, SHP-77, Lung - SCLC",8.01 µM
same,GI50,"SHP77, SHP-77, Lung - SCLC",7.9 µM
same,IC50,"SHP77, SHP-77, Lung - SCLC",8.01 µM
same,EC50,[1],5.09 µM
same,GI50,[1],5.07 µM
same,IC50,[1],5.1 µM
same,EC50,[2],7.11 µM
same,GI50,[2],7.02 µM
same,IC50,[2],7.11 µM
same,EC50,"SK-BR-3, SK-BR-3, Breast",12.2 µM
same,GI50,"SK-BR-3, SK-BR-3, Breast",11.9 µM
same,IC50,"SK-BR-3, SK-BR-3, Breast",12.2 µM
same,EC50,[3],6.79 µM
same,GI50,[3],11.2 µM
same,IC50,[3],11.3 µM
same,EC50,[4],22 µM
same,GI50,[4],20.8 µM
same,EC50,[5],15.7 µM
same,GI50,[5],14.7 µM
same,IC50,[5],15.7 µM
same,EC50,[6],9.46 µM
same,GI50,[6],9.85 µM
same,IC50,[6],9.89 µM
same,EC50,"SK-MES-1, SKMES1, Lung - NSCLC",7.8 µM
same,GI50,"SK-MES-1, SKMES1, Lung - NSCLC",7.67 µM
same,IC50,"SK-MES-1, SKMES1, Lung - NSCLC",7.8 µM
same,EC50,"SK-N-AS, CNS - Neuroblastoma",6.23 µM
same,GI50,"SK-N-AS, CNS - Neuroblastoma",7.7 µM
same,IC50,"SK-N-AS, CNS - Neuroblastoma",7.92 µM
same,EC50,"SK-N-DZ, CNS - Neuroblastoma",> 30 µM
same,GI50,"SK-N-DZ, CNS - Neuroblastoma",> 30 µM
same,IC50,"SK-N-DZ, CNS - Neuroblastoma",> 30 µM
same,EC50,"SK-N-FI, CNS - Neuroblastoma",> 30 µM
same,GI50,"SK-N-FI, CNS - Neuroblastoma",> 30 µM
same,IC50,"SK-N-FI, CNS - Neuroblastoma",> 30 µM
same,EC50,[7],15.4 µM
same,GI50,[7],15.2 µM
same,IC50,[7],15.4 µM
same,EC50,"SK-PN-DW, Stomach",10.8 µM
same,GI50,"SK-PN-DW, Stomach",10.9 µM
same,IC50,"SK-PN-DW, Stomach",10.9 µM
same,EC50,[8],11.7 µM
same,GI50,[8],11.6 µM
same,IC50,[8],11.7 µM
same,EC50,"SKO-007, SKO-007, Myeloma",1.59 µM
same,GI50,"SKO-007, SKO-007, Myeloma",1.42 µM
same,IC50,"SKO-007, SKO-007, Myeloma",1.59 µM
same,EC50,"SNB-19, SNB-19, CNS - Glioma",17.3 µM
same,GI50,"SNB-19, SNB-19, CNS - Glioma",16.8 µM
same,IC50,"SNB-19, SNB-19, CNS - Glioma",17.3 µM
same,EC50,"SNU1, SNU-1, Stomach",8.51 µM
same,GI50,"SNU1, SNU-1, Stomach",9.41 µM
same,IC50,"SNU1, SNU-1, Stomach",9.42 µM
same,EC50,"SNU-5, SNU-5, Stomach",> 30 µM
same,GI50,"SNU-5, SNU-5, Stomach",> 30 µM
same,IC50,"SNU-5, SNU-5, Stomach",> 30 µM
same,EC50,"SNU-16, SNU-16, Stomach",9.96 µM
same,GI50,"SNU-16, SNU-16, Stomach",9.91 µM
same,IC50,"SNU-16, SNU-16, Stomach",9.96 µM
same,EC50,"SNU-423, SNU-423, Liver",5.29 µM
same,GI50,"SNU-423, SNU-423, Liver",5.26 µM
same,IC50,"SNU-423, SNU-423, Liver",5.31 µM
same,EC50,"SR, Lymphoma",10.7 µM
same,GI50,"SR, Lymphoma",10.7 µM
same,IC50,"SR, Lymphoma",10.7 µM
same,EC50,"ST486, ST486, Lymphoma",3.87 µM
same,GI50,"ST486, ST486, Lymphoma",3.86 µM
same,IC50,"ST486, ST486, Lymphoma",3.87 µM
same,EC50,"SU-DHL10, SU-DHL-10, Lymphoma",9.92 µM
same,GI50,"SU-DHL10, SU-DHL-10, Lymphoma",9.9 µM
same,IC50,"SU-DHL10, SU-DHL-10, Lymphoma",9.92 µM
same,EC50,"SU-DHL-4, SU-DHL-4, Lymphoma",4.2 µM
same,GI50,"SU-DHL-4, SU-DHL-4, Lymphoma",4.2 µM
same,IC50,"SU-DHL-4, SU-DHL-4, Lymphoma",4.2 µM
same,EC50,"SU-DHL-5, SU-DHL-5, Lymphoma",4.28 µM
same,GI50,"SU-DHL-5, SU-DHL-5, Lymphoma",4.27 µM
same,IC50,"SU-DHL-5, SU-DHL-5, Lymphoma",4.28 µM
same,EC50,"SU-DHL-8, SU-DHL-8, Lymphoma",7.4 µM
same,GI50,"SU-DHL-8, SU-DHL-8, Lymphoma",7.4 µM
same,IC50,"SU-DHL-8, SU-DHL-8, Lymphoma",7.4 µM
same,EC50,"SU.86.86, SU.86.86, Pancreas",13.1 µM
same,GI50,"SU.86.86, SU.86.86, Pancreas",> 30 µM
same,IC50,"SU.86.86, SU.86.86, Pancreas",> 30 µM
same,EC50,"SUP-T1, SUP-T1, Lymphoma",12.1 µM
same,GI50,"SUP-T1, SUP-T1, Lymphoma",12 µM
same,IC50,"SUP-T1, SUP-T1, Lymphoma",12.1 µM
same,EC50,"SW48, SW48, Colon",8.73 µM
same,GI50,"SW48, SW48, Colon",8.65 µM
same,IC50,"SW48, SW48, Colon",8.73 µM
same,EC50,[9],12.3 µM
same,GI50,[9],12.2 µM
same,IC50,[9],12.3 µM
same,EC50,[10],> 30 µM
same,GI50,[10],> 30 µM
same,IC50,[10],> 30 µM
same,EC50,"SW837, SW837, Colon",> 30 µM
same,GI50,"SW837, SW837, Colon",> 30 µM
